# From patent publication US5519024A, “Quinolonecarboxylic acid derivatives and their use” (Takeda Chemical Industries, Ltd., priority 1993, dated 1996)
# Target: T1, GPIIb/IIIa (Homo sapiens, UniProt P05106+P08514)
# T1 construct: Purification of GPIIb/IIIa from HEL cells; endogenous in cells; host or cells: HEL cells (HEL 92.1.7, ATCC TIB180); endogenous complex solubilized with Triton X-100 and purified in house
# Experiment: Inhibitory activity against binding of GPIIb/IIIa and fibrinogen
# Conditions: Table 2; for inhibition at 10 µM / inhibition at 1 µM: read-out: GPIIb/IIIa Fibrinogen Binding Inhibitory Activity
# Description: Test Example 1: Inhibitory activity against binding of GPIIb/IIIa and fibrinogen
# (1) Cultivation of human erythroleukemia-derived cell line (hereinafter referred to as HEL cells)
# HEL cells (HEl92.1.7; ATCC No. TIB180) were purchased from ATCC (Rockville, Md., U.S.A.). The medium was RPMI medium (GIBCO Laboratories, Grand Island, N..Y, U.S.A.) containing 40 mM N-2-hydroxyethylpiperazine-N'-2-ethanesulfonic acid (hereinafter referred to as HEPES) (pH 7.0), 0.2% NaHCO3, 100 μg/ml kanamycin and 10% FCS. The cells were cultured in the presence of 5% CO2 at 37° C., with the medium replaced with a fresh medium to obtain a 4- to 5-fold dilution at intervals of 3 to 4 days.
# (2) Purification of GPIIb/IIIa from HEL cells
# GPIIb/IIIa was purified by a modification of the method of L. A. Fitzgerald et al. [J. Biol. Chem., 262, 3936 (1987)] as follows: All purification was conducted at room temperature, unless otherwise stated. At 7 days of cultivation, cells were collected from the HEL cell culture broth (cell suspension) by centrifugation (1,000 ×g, 10 minutes, 4° C.). After washing with 20 mM Tris-HCl (pH 7.5) containing 1 mM EDTA and 150 mM NaCl, the cells were suspended in a solubilizing buffer (20 mM Tris-HCl, 150 mM NaCl, 1% Triton X-100, 1 mM MgCl2, 1 mM CaCl2, 0.1 mM (p-amidinophenyl)methanesulfonyl fluoride (hereinafter referred to as APMSF), 10 nM leupeptin, 0.02% NaN3, pH 7.4), followed by gentle stirring at 4° C. for 30 minutes, to solubilize the GPIIb/IIIa. The suspension was centrifuged (100,000 ×g, 1 hour) at 4° C., and the cell debris removed, to yield a cell extract. The cell extract was passed through a Heparin-Sepharose CL-6B column (Pharmacia LKB) and a DEAE-Toyopearl 650M column (Tosoh), both previously equilibrated with a column buffer (20 mM Tris-HCl, 150 mM NaCl, 0.1% Triton X-100, 1 mM MgCl2, 1 mM CaCl2, 0.1 mM APMSF, 1 nM leupeptin, 0.05% NaN3, pH 7.4). The effluent was applied to a ConA-Sepharose column (Pharmacia LKB), previously equilibrated with the same column buffer as above, to adsorb the GPIIb/IIIa, followed by elution with the same column buffer but containing 0.5M methyl α-D-mannopyranoside. The eluted fraction was concentrated at 4° C. using an ultrafiltration apparatus (Amicon Corporation the fraction's molecular weight of 10,000), after which it was subjected to gel filtration through a Sephacryl S-300 column (Pharmacia LKB), previously equilibrated with the same column buffer, to yield a purified standard sample.
# (3) Biotinization of human fibrinogen
# Conducted by the method of I. F. Charo [I. F. Charo et al., J. Biol. Chem., 266, 1415 (1991)].
# Human fibrinogen (Kabi Vitrum AB) was dissolved in PBS to 5 mg/ml and then dialyzed at 4° C. against 0.1M carbonate buffer (pH 8.2) containing 0.1M NaCl. After dialysis, insoluble substances were removed by centrifugation (100,000 ×g, 30 minutes), and the dialyzate was diluted to 1 mg/ml with the same buffer. To this dilution, sulfo-N-hydroxysuccinimidebiotin (Pierce Chemical Co.) was added to a final concentration of 0.2 mg/ml, followed by gentle mixing at room temperature for 30 minutes, to biotinize the fibrinogen. After completion of the reaction, the mixture was dialyzed against 0.05M Tris-HCl buffer (pH 7.4) containing 0.1M NaCl and 0.05% NaN3.
# (4) Determination of inhibitory activity against fibrinogen binding
# Conducted by a modification of the method of I. F. Charo [I. F. Charo et al., J. Biol. Chem., 266, 1415 (1991)] as follows: The purified GPIIb/IIIa was diluted to 1 μg/ml with buffer A (20 mM Tris-HCl, 150 mM NaCl, 1 mM CaCl2, 0.02% NaN3, pH 7.4). A 100 μl aliquot of this dilution was dispensed to a 96-well microplate (Maxisorp, produced by Nunc), and the plate kept standing at 4° C., to adsorb the GPIIb/IIIa to the microplate. Next, 150 μl of buffer B (35 mg/ml BSA, 50 mM Tris-HCl, 100 mM NaCl, 2 mM CaCl2, 0.02% NaN3, pH 7.4) was added, followed by 2 hours of blocking at 30° C. […]
# T1 sequence (P08514 32-887 limits assumed): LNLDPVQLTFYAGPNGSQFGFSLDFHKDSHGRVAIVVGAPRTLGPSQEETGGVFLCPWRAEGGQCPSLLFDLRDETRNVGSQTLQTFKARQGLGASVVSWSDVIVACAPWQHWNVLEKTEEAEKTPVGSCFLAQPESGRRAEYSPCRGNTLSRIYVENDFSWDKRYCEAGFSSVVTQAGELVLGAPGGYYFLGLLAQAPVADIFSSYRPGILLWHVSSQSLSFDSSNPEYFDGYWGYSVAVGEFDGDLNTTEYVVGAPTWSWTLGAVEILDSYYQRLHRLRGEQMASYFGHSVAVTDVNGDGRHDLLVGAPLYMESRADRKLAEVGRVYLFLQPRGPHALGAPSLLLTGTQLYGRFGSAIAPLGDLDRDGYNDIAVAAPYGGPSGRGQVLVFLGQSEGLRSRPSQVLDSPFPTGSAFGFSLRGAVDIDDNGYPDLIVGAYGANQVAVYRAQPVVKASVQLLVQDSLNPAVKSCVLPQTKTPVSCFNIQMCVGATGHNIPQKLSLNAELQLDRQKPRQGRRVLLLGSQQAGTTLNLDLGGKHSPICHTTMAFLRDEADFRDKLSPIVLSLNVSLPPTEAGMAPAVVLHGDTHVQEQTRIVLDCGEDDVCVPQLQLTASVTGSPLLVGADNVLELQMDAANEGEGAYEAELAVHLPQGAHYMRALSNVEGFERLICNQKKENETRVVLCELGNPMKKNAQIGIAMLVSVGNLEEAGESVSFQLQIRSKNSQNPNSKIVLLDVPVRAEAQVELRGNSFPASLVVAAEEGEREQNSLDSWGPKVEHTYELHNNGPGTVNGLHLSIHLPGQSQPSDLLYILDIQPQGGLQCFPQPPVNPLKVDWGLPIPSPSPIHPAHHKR
# T1 sequence (P08514 891-1039 limits assumed): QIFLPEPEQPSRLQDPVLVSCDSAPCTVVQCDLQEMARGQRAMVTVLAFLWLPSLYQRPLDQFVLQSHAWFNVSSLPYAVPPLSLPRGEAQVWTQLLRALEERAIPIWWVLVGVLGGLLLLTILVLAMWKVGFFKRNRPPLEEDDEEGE
# T1 sequence (P05106 27-788): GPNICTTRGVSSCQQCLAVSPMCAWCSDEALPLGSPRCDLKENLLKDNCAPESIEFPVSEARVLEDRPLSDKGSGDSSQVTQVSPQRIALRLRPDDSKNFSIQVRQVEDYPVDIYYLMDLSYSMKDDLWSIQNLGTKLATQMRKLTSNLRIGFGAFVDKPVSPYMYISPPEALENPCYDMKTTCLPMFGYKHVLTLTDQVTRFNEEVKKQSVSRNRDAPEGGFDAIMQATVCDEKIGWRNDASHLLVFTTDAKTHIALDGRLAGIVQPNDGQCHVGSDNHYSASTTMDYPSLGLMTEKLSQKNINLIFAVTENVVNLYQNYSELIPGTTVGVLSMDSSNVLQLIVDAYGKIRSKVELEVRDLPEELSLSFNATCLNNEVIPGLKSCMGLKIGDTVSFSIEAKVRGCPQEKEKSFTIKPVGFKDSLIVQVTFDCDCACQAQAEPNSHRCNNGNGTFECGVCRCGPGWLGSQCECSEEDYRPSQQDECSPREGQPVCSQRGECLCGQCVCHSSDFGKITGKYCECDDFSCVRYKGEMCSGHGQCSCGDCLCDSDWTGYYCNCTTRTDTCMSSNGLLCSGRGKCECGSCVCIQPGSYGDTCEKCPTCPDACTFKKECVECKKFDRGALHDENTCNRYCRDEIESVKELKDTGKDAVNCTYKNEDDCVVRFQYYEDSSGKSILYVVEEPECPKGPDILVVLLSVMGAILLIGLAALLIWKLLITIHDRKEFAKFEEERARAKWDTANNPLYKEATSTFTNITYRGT
Compound,inhibition at 10 µM (10^-5 M) [%],inhibition at 1 µM (10^-6 M) [%],GPIIb/IIIa Fibrinogen Binding Inhibitory Activity (10^-5 M) [%],GPIIb/IIIa Fibrinogen Binding Inhibitory Activity (10^-6 M) [%]
CN1CCN(c2c(F)cc3c(=O)c(C(=O)O)cn(C)c3c2F)CC1 [Compound 1],70.7,48.6,,
Cn1cc(C(=O)O)c(=O)c2cc(F)c(N3Cc4ccccc4C(N)C3)c(F)c21 (stereo not drawn) [Compound 2],72.4,48.4,,
"CCn1cc(C(=O)O)c(=O)c2cc(F)c(N3CCN(c4ccncc4)CC3)cc21 [Compound 3, 1-Ethyl-6-fluoro-7-[4-(4-pyridyl)piperazin-1-yl]-1,4-dihydro-4-oxoquinoline-3-carboxylic acid]",82.2,57.1,,
CCn1cc(C(=O)O)c(=O)c2cc(F)c(N3CCN(Cc4ccccn4)CC3)cc21 [Compound 4],70.9,33,,
CCn1cc(C(=O)O)c(=O)c2cc(F)c(SC3CCN(C)CC3)cc21 [Compound 5],60.3,26,,
CCn1cc(C(=O)O)c(=O)c2cc(F)c(N3CCN4CCCC4C3)c(F)c21 (stereo not drawn) [Compound 6],83.3,39.3,,
CN1CCN(c2c(F)cc3c(=O)c(C(=O)O)cn(CCF)c3c2F)CC1 [Compound 7],91,62.1,,
O=C(O)c1cn(CCF)c2c(F)c(N3CCN4CCCC4C3)c(F)cc2c1=O (stereo not drawn) [Compound 8],79.3,53.1,,
O=C(O)c1cn(CCF)c2c(F)c(N3CCn4ccnc4C3)c(F)cc2c1=O [Compound 9],69.5,43.9,,
"O=C(O)c1cn(CCO)c2c(F)c(N3CCn4ccnc4C3)c(F)cc2c1=O [Compound 10, 1-(2-Hydroxyethyl)-6,8-difluoro-7-(5,6,7,8-tetrahydroimidazo[1,2-a]pyrazin-7-yl)-1,4-dihydro-4-oxoquinoline-3-carboxylic acid]",91.3,72.9,,
"NC(=O)OCCn1cc(C(=O)O)c(=O)c2cc(F)c(N3CCNCC3)c(F)c21 [Compound 11, 1-(2-Carbamoyloxyethyl)-6,8-difluoro-7-(1-piperazinyl)1,4-dihydro-4-oxoquinoline-3-carboxylic acid]",96.8,84.3,,
CN(C)CCn1cc(C(=O)O)c(=O)c2cc(F)c(N3CCNCC3)cc21 [Compound 12],79.1,65.1,,
CN(C)CCn1cc(C(=O)O)c(=O)c2cc(F)c(N3CCN(C)CC3)cc21 [Compound 13],70.5,54.7,,
O=C(O)CCn1cc(C(=O)O)c(=O)c2cc(F)c(N3CCNCC3)c(F)c21 [Compound 14],,56.1,,
CC(=O)N1CC(n2cc(C(=O)O)c(=O)c3cc(F)c(N4CCN(C)CC4)c(F)c32)C1 [Compound 15],60.5,33.9,,
CN1CCN(c2c(F)cc3c(=O)c(C(=O)O)cn(C4CN(C)C4)c3c2F)CC1 [Compound 16],60.4,43.2,,
CN1CCN(c2c(F)cc3c(=O)c(C(=O)O)cn(C4CC4)c3c2F)CC1 [Compound 17],47.3,17.1,,
O=C(O)c1cn(C2CC2)c2c(F)c(N3CCn4ccnc4C3)c(F)cc2c1=O [Compound 18],42.6,30.5,,
O=C(O)c1cn(C2CC2)c2c(F)c(SC3CCNCC3)c(F)cc2c1=O [Compound 19],49.7,7,,

Compound,inhibition at 10 µM (10^-5 M) [%],inhibition at 1 µM (10^-6 M) [%],GPIIb/IIIa Fibrinogen Binding Inhibitory Activity (10^-5 M) [%],GPIIb/IIIa Fibrinogen Binding Inhibitory Activity (10^-6 M) [%]
CNCCN(C)c1nc2c(cc1F)c(=O)c(C(=O)O)cn2C1CC1 [Compound 20],59.4,12,,
CN(C)CCN(C)c1nc2c(cc1F)c(=O)c(C(=O)O)cn2C1CC1 [Compound 21],69.9,31.3,,
O=C(O)c1cn(C2CC2)c2c(F)c(N3CCNCC3)c(F)cc2c1=O [Compound 22],72.7,39.8,,
CCNCC1CCN(c2c(F)cc3c(=O)c(C(=O)O)cn(C4CC4)c3c2F)C1 (stereo not drawn) [Compound 23],72.3,36.2,,
CCN1CCCC1CNc1c(F)cc2c(=O)c(C(=O)O)cn(C3CC3)c2c1F (stereo not drawn) [Compound 24],50,24.9,,
CN(C)CCOC1CCN(c2c(F)cc3c(=O)c(C(=O)O)cn(C4CC4)c3c2F)C1 (stereo not drawn) [Compound 25],87.8,67.7,,
CN1CCN(C(=O)OC2CCN(c3c(F)cc4c(=O)c(C(=O)O)cn(C5CC5)c4c3F)C2)CC1 (stereo not drawn) [Compound 26],94.1,71.4,,
CCNCc1cn2c(n1)CN(c1c(F)cc3c(=O)c(C(=O)O)cn(C4CC4)c3c1F)CC2 [Compound 27],78.4,42.6,,
"CN(C)Cc1cn2c(n1)CN(c1c(F)cc3c(=O)c(C(=O)O)cn(C4CC4)c3c1F)CC2 [Compound 28, 1-Cyclopropyl-6,8-difluoro-7-(2-dimethylaminomethyl-5,6,7,8-tetrahydroimidazo[1,2-a]pyrazin-7-yl)-1,4-dihydro-4-oxoquinoline-3-carboxylic acid]",95.8,73.3,,
Cc1cnc2n1CCN(c1c(F)cc3c(=O)c(C(=O)O)cn(C4CC4)c3c1F)C2 [Compound 29],68.7,38.4,,
O=C(O)c1cn(C2CC2)c2c(F)c(N3CCn4cc(CN5CCOCC5)nc4C3)c(F)cc2c1=O [Compound 30],54.8,24.2,,
O=C(O)c1cn(C2CC2)c2c(F)c(N3CCN4CCC[C@@H]4C3)c(F)cc2c1=O [Compound 31],73,39.3,,
O=C(O)c1cn(C2CC2)c2cc(N3CCN4CCC[C@H]4C3)c(F)cc2c1=O [Compound 32],71.2,39.5,,
O=C(O)c1cn(C2CC2)c2c(F)c(N3CCN4CCC[C@@H]4C3)c(F)cc2c1=O [Compound 33],,,68.3,33.6
O=C(O)c1cn(C2CC2)c2c(F)c(N3CCc4ccccc4C3)c(F)cc2c1=O [Compound 34],77,49.4,,
NC1CN(c2c(F)cc3c(=O)c(C(=O)O)cn(C4CC4)c3c2F)Cc2ccccc21 (stereo not drawn) [Compound 35],51.8,21.5,,
O=C(O)c1cn(C2CC2)c2c(F)c(N3Cc4ccccc4C(CO)C3)c(F)cc2c1=O (stereo not drawn) [Compound 36],56,36.3,,
NCC1CN(c2c(F)cc3c(=O)c(C(=O)O)cn(C4CC4)c3c2F)Cc2ccccc21 (stereo not drawn) [Compound 37],60.1,32.5,,
NC1CCCN(c2c(F)cc3c(=O)c(C(=O)O)cn(C4CC4)c3c2F)C1 (stereo not drawn) [Compound 38],50.8,31.9,,
